According to US5776720A, “Assay reagent” (priority 1995, dated 1998):

Legend:
Format in all cases: cell-based, human
Parameters in all cases: unit not given here
Details in all cases: normal donors
granulocytes = test: Normal leukocyte enzyme activity (Table 3A), granulocytes
Excerpt: (§1) The measured fluorescence intensity can be converted from mean channel fluorescence (in peak or integrated mode) to MESF (molecules of equivalent soluble fluorochrome, Flow Cytometry Standards Corp. , San Juan, Puerto Rico) or International Units of hydrolysis per cell. A normal range of enzyme activity is established by assaying males and females in sufficient quantity to characterize the population levels statistically.
(§2) A normal in house adult donor pool was drawn, recording sex and determining that no known disease state was present at the time of sample draw. Criteria for rejecting samples included patients under medication, patients with infection or inflammation of any type, colds and flu as well as any known medical illness such as cancer, heart ailment and high blood pressure. A donor list of 75 patients has been developed and a mean and 2 sd range established. A subgroup of "super normals" was developed from this list by examining the 75 patients to determine which group falls closest to the mean for all enzymes in all cell types tested. These patients were used as the "wellness index" or best group of "normalcy" patients. If a study required the use of children or newborns then this same format was used to develop a data base for these age groups.

lymphocytes = test: Normal leukocyte enzyme activity (Table 3A), lymphocytes
Excerpt: as §1, §2

monocytes = test: Normal leukocyte enzyme activity (Table 3A), monocytes
Excerpt: as §1, §2

| Compound | NORMAL LEUKOCYTE ENZYME ACTIVITY, GRANS Mean (granulocytes) | NORMAL LEUKOCYTE ENZYME ACTIVITY, LYMPHS Mean (lymphocytes) | NORMAL LEUKOCYTE ENZYME ACTIVITY, MONOS Mean (monocytes) |
| --- | --- | --- | --- |
| CCCCCCCCCCCCCCCC(=O)Oc1ccc2c(c1)Oc1cc(OC(=O)CCCCCCCCCCCCCCC)ccc1C21OC(=O)c2ccccc21 [DIPAL 6.5, FL(palmitate)2] | 0.14 | 0.15 | 0.30 |
| (Val-Lys)2 Rho 110 (modified) [VK--M] | 4.31 | 2.05 | 43.37 |
| CC(=O)Oc1ccc2c(c1)Oc1cc(OC(C)=O)ccc1C21OC(=O)c2ccccc21 [DIACET 7.5, Fluorescein (acetate)2, reference compound] | 348.01 | 89.30 | 432.78 |
| CCCCCCCCCCCCCCCC(=O)Oc1ccc2c(c1)Oc1cc(OC(=O)CCCCCCCCCCCCCCC)ccc1C21OC(=O)c2ccccc21 [DIPAL 7.5, FL(palmitate)2] | 0.14 | 0.14 | 0.30 |
| O=C(NCC(=O)N1CCC[C@H]1C(=O)Nc1ccc2c(c1)Oc1cc(NC(=O)[C@@H]3CCCN3C(=O)CNC(=O)OCc3ccccc3)ccc1C21OC(=O)c2ccccc21)OCc1ccccc1 [Z--GP, (carbobenzyloxycarbonyl-Gly-Pro)2 Rho 110] | 240.99 | 107.56 | 225.10 |
| C[C@H](NC(=O)OCc1ccccc1)C(=O)N[C@@H](C)C(=O)Nc1ccc2c(c1)Oc1cc(NC(=O)[C@H](C)NC(=O)[C@H](C)NC(=O)OCc3ccccc3)ccc1C21OC(=O)c2ccccc21 [Z--AA, (Z--Ala--Ala)2 Rho 110] | 363.20 | 151.20 | 328.25 |
| CCCCCC(=O)Oc1ccc2c(c1)Oc1cc(OC(=O)CCCCC)ccc1C21OC(=O)c2ccccc21 [DIHEX 7.5, FL(hexanoate)2] | 17.57 | 7.54 | 37.22 |
| NC(=O)CC[C@H](N)C(=O)N[C@@H](CO)C(=O)Nc1ccc2c(c1)Oc1cc(NC(=O)[C@H](CO)NC(=O)[C@@H](N)CCC(N)=O)ccc1C21OC(=O)c2ccccc21 [QS, (H--L--Gln--Ser)2 Rho 110.2TFA] | 4.67 | 1.70 | 10.66 |
| CCC(=O)Oc1ccc2c(c1)Oc1cc(OC(=O)CC)ccc1C21OC(=O)c2ccccc21 [DIPRO 6.5, FL(propionate)2] | 349.18 | 86.11 | 441.65 |
| CC(C)[C@H](N)C(=O)N[C@@H](CCCCN)C(=O)Nc1ccc2c(c1)Oc1cc(NC(=O)[C@H](CCCCN)NC(=O)[C@@H](N)C(C)C)ccc1C21OC(=O)c2ccccc21 [VK, (Val-Lys)2 Rho 110] | – | 1.87 | 20.38 |
| C[C@H](NC(=O)OCc1ccccc1)C(=O)NCC(=O)Nc1ccc2c(c1)Oc1cc(NC(=O)CNC(=O)[C@H](C)NC(=O)OCc3ccccc3)ccc1C21OC(=O)c2ccccc21 [Z--AG, (Z--Ala--Gly)2 Rho 110] | 33.19 | 15.17 | 34.51 |
| CC(C)C[C@H](NC(=O)CN)C(=O)Nc1ccc2c(c1)Oc1cc(NC(=O)[C@H](CC(C)C)NC(=O)CN)ccc1C21OC(=O)c2ccccc21 [GL, (H Gly--Leu)2 Rho 110.2FTA] | 29.16 | 9.42 | 41.78 |
| CCC(=O)Oc1ccc2c(c1)Oc1cc(OC(=O)CC)ccc1C21OC(=O)c2ccccc21 [DIPRO 7.6, FL(propionate)2] | 429.17 | 96.34 | – |
